Literature values, collected in US6183992A, “Method for mass production of antimicrobial peptide” (Samyang Genex Corporation, priority 1997, dated 2001).
Ends that are not written are not given here.

Conditions: Table 1, excerpted from Peptide Science, Vol 37, 105-122 (1995)

pI | Compound
10.01 | Tachyplesin I
12.22 | GKPRPYSPRPTSHPRPIRV [Drosocin]
10.89 | Cercropin A [Ceropin A]
11.41 | Magainin (MSI-344)

The next lines start with the compound.

Compound | pI
Apidaecin I | 12.21
CC[C@H](C)[C@H](NC(=O)CN)C(=O)NCC(=O)N[C@@H](C)C(=O)N[C@H](C(=O)N[C@@H](CC(C)C)C(=O)N[C@@H](CCCCN)C(=O)N[C@H](C(=O)N[C@@H](CC(C)C)C(=O)N[C@H](C(=O)N[C@H](C(=O)NCC(=O)N[C@@H](CC(C)C)C(=O)N1CCC[C@H]1C(=O)N[C@@H](C)C(=O)N[C@@H](CC(C)C)C(=O)N[C@H](C(=O)N[C@@H](CO)C(=O)N[C@@H](Cc1c[nH]c2ccccc12)C(=O)N[C@H](C(=O)N[C@@H](CCCCN)C(=O)N[C@@H](CCCNC(=N)N)C(=O)N[C@@H](CCCCN)C(=O)N[C@@H](CCCNC(=N)N)C(=O)N[C@@H](CCC(N)=O)C(=O)N[C@@H](CCC(N)=O)C(N)=O)[C@@H](C)CC)[C@@H](C)CC)[C@@H](C)O)[C@@H](C)O)C(C)C)C(C)C [Melittin] | 12.53
CC[C@H](C)[C@H](N)C(=O)N[C@@H](CC(C)C)C(=O)N1CCC[C@H]1C(=O)N[C@@H](Cc1c[nH]c2ccccc12)C(=O)N[C@@H](CCCCN)C(=O)N[C@@H](Cc1c[nH]c2ccccc12)C(=O)N1CCC[C@H]1C(=O)N[C@@H](Cc1c[nH]c2ccccc12)C(=O)N[C@@H](Cc1c[nH]c2ccccc12)C(=O)N1CCC[C@H]1C(=O)N[C@@H](Cc1c[nH]c2ccccc12)C(=O)N[C@@H](CCCNC(=N)N)C(=O)N[C@@H](CCCNC(=N)N)C(N)=O [Indolicidin] | 12.51
HNP-I [HNP1] | 8.28
Bombinin | 10.34
